Reference: patent publication US8940788B2, “Anti-angiogenic composition containing macrolactin A and a derivative thereof as active ingredients” (Daewoo Pharmaceutical Ind. Co., Ltd., priority 2010, dated 2015)

Columns and labels:
[1] = tested on: chorioallantoic membrane (CAM) neovascular formation induced by VEGF; assay: CAM analysis of suppressive effect on angiogenesis, neovascular formation induced by VEGF; assay type: in vivo, chicken; details: VEGF 20 ng/CAM; for suppression of neovascular formation caused by VEGF (number of blood vessel branches): various concentrations of compound, three days after treatment
Procedure: (§1) In order to confirm an anti-angiogenic effect of the macrolactin compounds in in vivo test, chorioallantoic membrane (CAM) analysis was carried out (Nguyen M. et al., Microvascular Res., 47, pp. 31-40, 1994). 6±1 fertile eggs were used per group.
(§2) Fertile chicken eggs were cultured while maintaining the temperature of 37° C. and the relative humidity of 55%. On the third day of culture, a first small hole was made in the air sac part with a hypodermic needle (Green Cross Medical Corporation, Korea), and a second hole was made in the plat part of the fertile eggs to make a window.
(§3) The CAM was separated from the eggshell by expelling the air through the first hole in the air sac, and then the part was cut with a grinding wheel (Multipro 395JA, Dremel, Mexico) to make a window.
(§4) A Whatman filter disc #1 (Whatman, USA) was treated with 3 mg/ml of cortisone acetate and dried. The filter disc was treated with 10 μl of VEGF, TNF-α or IL-8 (20 ng/CAM).
(§5) Through the pre-made window, the filter disc was put on blood vessel, and then treated with various concentrations of MA, MMA or SMA which was dissolved in DMSO and diluted with PBS.
Three days after treatment, the CAM part with the filter disc was separated and washed with phosphate buffer solution. The photographs were taken by using a stereomicroscope (Leica, Wetzlar, Germany) and Image-Pro Plus software (Media Cybernetics; Silver Spring, Md., USA) to determine the number of bleed vessel branches and to analyze the data.
All data were represented as mean±standard error of mean, and the statistical analysis was done as one-way ANOVA by using GraphPad Prism 4 Software (San Diego, Calif., USA). Multiple comparisons between the differences of each group were made by using the NK (Newman-Keuls) method. When p-value was less than 0.05, the data were regarded as statistically significant.

[2] = tested on: Human fibrosarcoma cells (HT-1080); assay: Infiltration test of fibrosarcoma cells (suppressive effect on metastasis of cancer), transwell with Matrigel; assay type: cell-based; details: 18 hours
Procedure: Human fibrosarcoma cells (HT-1080) were cultured in DMEM containing 10% fetal bovine serum (FBS) and 1% penicillin/streptomycin (PS) under the condition of 37° C. and 5% CO2. When the cells grew to fill 80% or more of the culture flask, they were subcultured at a ratio of 1:3 and used in this test. In order to confirm the suppressive effect of the macrolactin compounds on metastasis of cancer in in vitro experiments, an infiltration test of fibrosarcoma cells was carried out by using a 24-well transwell attached with a polycarbonate filter of […] pore size. Firstly, the bottom side of the filter was coated with Collagen Type I (0.5 mg/ml), and then the upper side of the filter was coated with Matrigel (1.5 mg/ml). After coating, the lower part of the insert was filled with a medium containing 5% FBS, and the upper part was filled with serum-free medium human fibrosarcoma cells (HT-1080) which were incubated for 18 hours in a cell incubator. The human fibrosarcoma cells infiltrated into the bottom side of the filter were fixed with methanol and then dyed with hematoxylin and eosin. The infiltrated cells were observed under a microscope, and 3 parts were randomly selected from each filter to take photographs and determine the number of cells (Kim, M. S. et al., Cancer Res., 63, pp. 5454-5461, 2003; Park, B. C. et al., Eur. J. Pharm., 567, pp. 193-197, 2007).

[3] = tested on: chorioallantoic membrane (CAM) neovascular formation induced by IL-8; assay: CAM analysis of suppressive effect on angiogenesis, neovascular formation induced by IL-8; assay type: in vivo, chicken; details: IL-8 20 ng/CAM; various concentrations of compound; three days after treatment
Procedure: as §1, §2, §3, §4, §5
(§6) Three days after treatment, the CAM part with the filter disc was separated and washed with phosphate buffer solution. […]

[4] = tested on: chorioallantoic membrane (CAM) neovascular formation induced by TNF-α; assay: CAM analysis of suppressive effect on angiogenesis, neovascular formation induced by TNF-α; assay type: in vivo, chicken; details: TNF-α 20 ng/CAM; various concentrations of compound; three days after treatment
Procedure: as §1, §2, §3, §4, §5, §6

Row | SMILES | suppression of neovascular formation caused by VEGF (number of blood vessel branches) [1] | dose dependence of suppression of metastasis (infiltration) of fibrosarcoma cells induced by 5% FBS [2] | suppression of neovascular formation caused by IL-8 (number of blood vessel branches) [3] | suppression of neovascular formation caused by TNF-α (number of blood vessel branches) [4] | dose dependence of suppression of neovascular formation caused by VEGF ([1]; various concentrations) | suppressive effect on metastasis (infiltration) of fibrosarcoma cells induced by 5% FBS ([2]; compound 1 μM) | suppressive effect on metastasis (infiltration) of fibrosarcoma cells induced by 5% FBS ([2]; compound 5 μM)
1 | C[C@@H]1CCC/C=C/C=C/[C@H](O)C[C@@H](O)C/C=C\C=C\[C@@H](OC(=O)CC(=O)O)C/C=C/C=C\C(=O)O1 [MMA, 7-O-malonyl macrolactin A] | strongly suppressed |  |  |  |  |  | 
2 | CC1CCC/C=C/C=C/[C@H](O)C[C@@H](O)C/C=C\C=C\[C@@H](O)C/C=C/C=C\C(=O)O1 (stereo partly drawn) [MA, macrolactin A] | strongly suppressed | in a dose-dependent way | strongly suppressed | strongly suppressed |  |  | 
3 | C[C@@H]1CCC/C=C/C=C/[C@H](O)C[C@@H](O)C/C=C\C=C\[C@@H](OC(=O)CCC(=O)O)C/C=C/C=C\C(=O)O1 [SMA, 7-O-succinyl macrolactin A] | strongly suppressed | in a dose-dependent way | strongly suppressed | strongly suppressed | suppressed neovascular formation in a dose-dependent way | significant suppressive effect | superior suppressive effect on the metastasis comparable to that of batimastat
